Measured values taken from patent US6497862B2, “Composition for inhibiting body odor and uses thereof” (Kabushiki Kaisha Hayashibara, priority 2000, dated 2002).

Experiments:
[1] = Panel test of body-odor-like smell (KAREI-SHU), linoleic acid heated (Experiment 2); parameters: key: +++: the same or higher level of odor; ++: slightly lower level of odor; +: clearly lower level of odor than that of the control system; details: compared with control system
From the text: (§1) Upon the HSG samples, the level of a body-odor-like smell was examined on a panel test consisting of six professional panels; the panels directly smelled the samples from each glass vial and judged the level of the smells for each samples with test saccharides based on the following four ranks, i.e., the same or higher level of odor (+++), slightly lower level of odor (++), clearly lower level of odor (+), and odorless (−) as compared with the control system. Summing up the data from the panels, the samples tested were totally evaluated.
(§2) The content of 2-nonenal in HSG was measured by GC similarly as in Experiment 1 except that linoleic acid was used as a fatty acid and 2-nonenal, a volatile aldehyde, was used as a standard substance. The level of a body-odor-like smell, particularly with respect to KAREI-SHU, in each sample was evaluated by panel test in accordance with the method in Experiment 1.

[2] = Decomposition of fatty acids by heating, 9-hexadecanoic acid (Experiment 5); details: heated at 105° C. for one hour with 100 mg test saccharide; control 38.1
Experimental: One hundred milligrams of linoleic acid or 9-hexadecanoic acid as a fatty acid, 500 mg of a cellulose powder, and 1.25 ml of 0.12 M phosphate buffer (pH 6.0) were placed in a 20-ml glass vial. To the glass vial was added 100 mg of either of trehalose, maltitol and sucrose as a test saccharide, followed by sealing with a butyl rubber cap. As a control system, there provided a glass vial with no test saccharide that differed from the test systems only in this point. These vials were heated at 105° C. for one hour. Another glass vial with no heat treatment, which contained the same ingredients as shown in the above, was provided that differed from the test systems only in that it had no heat treatment.
The above test systems with or without heat treatment and the control system were subjected to the following methyl esterification reaction and analyzed on GC to measure the content of fatty acids; To each glass vial was added 20 ml of a mixture solution of chloroform and methanol (=2:1 by volume) to extract fatty acids, and one milliliter of each resulting extract was collected in a 10-ml eggplant-shape flask, concentrated, and dried in vacuo. […]
Two microliters of each of the resulting n-hexane layers were analyzed on GC using “GAS CHROMATOGRAPH GC-14A”, a GC apparatus, commercialized by Shimadzu Corporation, Tokyo, Japan; and “CAPILLARY COLUMN FFAP”, an analysis column having an inner diameter of 0.25 mm, a length of 30 m, and a membrane thickness of 0.25 μm, commercialized by GL Sciences Inc., Tokyo, Japan, under the conditions of using helium gas as a carrier at a flow rate of 1 ml/min, at a temperature of 250° C. as a sample injection temperature, a column thermostatic bath temperature being kept at 80° C. for five minutes and then increased up to 240° C. at a rate of 5° C./min, and a hydrogen flame ionization detector for detecting fatty acids. Based on the peak area of the obtained gas chromatograms, it was calculated the content of fatty acids, i.e., linoleic acid and 9-hexadecanoic acid, before or after the heat treatment in the test- and control-systems. […]

[3] = Panel test of body-odor-like smell (KAREI-SHU), 9-hexadecanoic acid heated (Experiment 3); parameters: key: +++: the same or higher level of odor; ++: slightly lower level of odor; +: clearly lower level of odor than the control system; details: compared with control system
From the text: as §1
as §2, with “9-hexadecanoic acid or palmitoleic” for “linoleic”, “of” for “of a”

[4] = Panel test of smell, 9-hexadecanoic acid at 37° C. (Experiment 6); parameters: key: +++: the same or higher level of odor; ++: slightly lower level of odor; +: clearly lower level of odor than that of the control system; −: odorless; details: 3-days of standing, 37° C., 9,000 lux
From the text: as §1
One hundred milligrams of 9-hexadecanoic acid as a fatty acid, 500 mg of a cellulose powder, and 1.25 ml of 0.12 M phosphate buffer (pH 6.0) were placed in a 20-ml glass vial. To the glass vial was added 100 mg of either of trehalose, maltitol and sucrose as a test saccharide, followed by sealing with a butyl rubber cap for use as a test system. As a control system, there provided a glass vial with no test saccharide that differed from the test systems only in this point. In both the test- and control-systems, they were respectively provided in doublet.
These glass vials were allowed to stand in a 37° C.-thermostatic-bath under the irradiation of 9,000 lux by a fluorescent lamp. […] After the collection of HSG, the smell from glass vials was evaluated by panel test in accordance with the method in Experiment 2.

| SMILES | Evaluation of panel test [1] | Decomposition percentage, 9-Hexadecanoic acid [2] [%] | Evaluation of panel test [3] | Evaluation of panel test [4] |
| --- | --- | --- | --- | --- |
| OC[C@@H](O)[C@@H](O[C@H]1O[C@H](CO)[C@@H](O)[C@H](O)[C@H]1O)[C@H](O)[C@@H](O)CO [Maltitol, maltitol] | + | 14.7 | + | − |
| OC[C@H]1O[C@@](CO)(O[C@H]2O[C@H](CO)[C@@H](O)[C@H](O)[C@H]2O)[C@@H](O)[C@@H]1O [Sucrose, sucrose] | +++ | 38.5 |  |  |
| OC[C@H]1O[C@H](O[C@H]2O[C@H](CO)[C@@H](O)[C@H](O)[C@H]2O)[C@H](O)[C@@H](O)[C@@H]1O [Trehalose, trehalose] | + | 13.2 | + | − |
